This note sets out measurements from PMC8305076, “Comprehensive Evaluation of Biological Effects of Pentathiepins on Various Human Cancer Cell Lines and Insights into Their Mode of Action” (International Journal of Molecular Sciences, 2021).

Structures are written as SMILES.

Common to all, as to format: cell-based, human
One assay deals with DanG. The assay is described as follows: DCFDA flow cytometric ROS assay, acute. The settings on record: 25 µM, 15 min. On the procedure: (§1) According to the hypothesized mechanism of action (see Figure 3), pentathiepins can create oxidative stress via generation of reactive sulfur precursors. We have previously reported that a representative pentathiepin can increase the intracellular levels of ROS in two cancer cell lines. This effect was thus further evaluated with the new compounds in seven cell lines (Figure 8). The cells were incubated for 15 min with 25.0 µM pentathiepin and subsequently analyzed by using the intracellular ROS sensor 2′,7′-dichlorodihydrofluorescein diacetate (DCFDA) by flow cytometry.
(§2) In order to quantify intracellular ROS, we performed a flow cytometric assay based on the ROS-sensor 2′,7′-dichlorofluorescein diacetate (DCFDA). For acute effects of pentathiepins on intracellular ROS levels, the cells were stained with DCFDA first and subsequently incubated with 25 µM of compound for 10 min. […] Per condition, 250,000 cells were seeded in 2 mL of medium per well of a 6-well plate and allowed to adhere overnight. For measurement of acute ROS, the cells were stained with 1 mL of a 20 µM DCFDA-PBS solution for 30 min under standard incubation conditions. Afterwards, the solution was discarded, and the monolayer washed twice with 1 mL of PBS before 3 mL of medium containing 25 µM of pentathiepin was added for 10 min at 37 °C. After removing the solution and washing again with PBS, the cells were detached by using 0.5 mL of a diluted trypsin/EDTA-PBS solution (25%) and harvested with 1 mL of culture medium by carefully rinsing the wells. The cell suspension was transferred to 1.5 mL tubes, centrifuged for 5 min at 500× g, and washed with 1 mL of PBS. After removing the supernatant, each pellet was resuspended in 0.5 mL of PBS for measurement via the MACSquant Analyzer 10 at λEx/Em = 488/530 nm. Relative ROS levels resulting from treatment with pentathiepin were calculated by relating the fluorescence intensity of treated samples to the negative control. For the experiments covering periods of 24 and 48 h, the cells were incubated with the compounds first and stained with DCFDA afterwards. To assess the influence of additional GSH, we included 3 or 30 µM GSH to the medium containing 25 µM of pentathiepin, and the protocol was followed as described.

For the next assay, the system named is PATU-8902. The assay is described as follows: DCFDA flow cytometric ROS assay, acute. The settings on record: 25 µM, 15 min. On the procedure: as §1, §2
In general terms: A flow cytometer gives signals particle by particle.

Assay [1] deals with caspase-3 and -7 in HAP-1. As to the kind of experiment: luminescent caspase activity assay. The settings on record: pentathiepins IC90, doxorubicin 0.5 µM, 24 h. The source says:
To further corroborate this mode of cell death, we performed a luminescent caspase assay by measuring caspase-3 (cas-3) and caspase-7 (cas-7) activities (Figure 16). Both are executioner caspases that are present as zymogens (35 kDa) and become active after being cleaved (fragment sizes 17 and 19 kDa) by initiator caspases. Activated cas-3 and -7 in turn have several other substrates, including PARP1. In this assay, a precursor with a caspase-specific target sequence was converted into its luminescent form by active caspase-3 or -7, thereby emitting light that can be quantified.
To study the activation of the effector caspases -3 and -7, we performed a luminescence-based assay according to the manufacturer’s instructions (Caspase-Glo, Promega, Walldorf, Germany). Briefly, 5000 cells were seeded in 0.1 mL per well of a 96-well plate and allowed to adhere overnight. […] Afterwards, the standard protocol was followed, including a 30 min incubation time before measurement of luminescent signals by using the Spectramax i3x (Molecular Devices, Sunnyvale, CA, USA). After subtraction of the background luminescence the positive control and treatment conditions were related to the negative control.

A further assay deals with PARP1 in A2780. The assay is described as follows: Western blot of cleaved PARP1. The settings on record: IC90, 24 h. On the procedure: (§3) In addition to general flow cytometric and microscopic analyses, Western blotting was performed to detect the apoptosis-relevant protein PARP1 (poly(ADP-ribose) polymerase 1) and its cleavage fragment (Figure 17 and Figures S29–S34). Full-length PARP1 (116 kDa) is involved in DNA repair, and a cleavage by caspases (fragment sizes 24 and 89 kDa) caused by caspase-3 and -7 is a hallmark of late apoptosis.
(§4) All detected specific bands were normalized to the total protein load per lane by the TGX stain-free gel system from Bio-Rad.
(§5) All Western blot analyses were performed with reagents, material, and devices purchased from Bio-Rad (Feldkirchen, Germany) if not stated otherwise. To obtain protein lysates, we seeded cells and treated them as described for the other methods. […] Cells were harvested by trypsinization and centrifugation for 5 min at 500× g. After a washing step with PBS, the cell pellet was resuspended in lysis buffer (Tris 50 mM (pH 7.4), 100 mM NaCl, 100 mM NaF, 5 mM EDTA, 0.2 mM Na3VO4, 0.1% Triton-X, and 1% protease inhibitor cocktail added immediately before use). Lysis was supported by incubating the samples for 10 min in an ultrasonic bath before centrifuging for 10 min at 18,000 × g and 4 °C. Protein quantification was performed via the Bradford method using ROTI®nanoquant reagent (Carl Roth GmbH, Karlsruhe, Germany) and bovine serum albumin as calibration standard. For electrophoretic separation, 15–40 µg of protein was loaded per well of a polyacrylamide gel (Mini- or Midi-Protean® TGX stain-free gel, Bio-Rad, Feldkirchen, Germany), and subsequent blotting was performed with Trans-Blot®Turbo™TransferPack Mini or Midi PVDF membranes from Bio-Rad (Feldkirchen, Germany). The membranes were blocked with a 10% non-fat milk powder solution in Tris-buffered saline (TBS; 2.42 g/L Tris, 8.48 g/L NaCl in water) plus 0.5% Tween-20 (TBST) for 1 h at RT. Incubation with primary antibodies took place over night at 4 °C in a 1:1000 dilution in TBST containing BSA (1%). The secondary antibodies conjugated to horse-radish peroxidase were diluted 1:10,000 in TBST and 1% BSA, and incubated for 4 h at RT. A detection step followed, applying Clarity™Western ECL substrate with subsequent imaging via the INTAS Advanced Fluorescence Imager. Between all incubation steps, the blots were washed three times for 10 min with TBST. The bands were quantified with the ImageLab software and normalized using the total protein quantification of the TGX stain-free gel system from Bio-Rad.

The subject of another assay is PARP1 in Siso. As to the kind of experiment: Western blot of cleaved PARP1. The settings on record: IC90, 24 h. As for the experimental part: as §3, §4, §5
(In general: A western blot detects proteins with antibodies after separation by electrophoresis.)

With `CCOc1c2c(c3ccc(C(=O)N(CC)CC)cn13)SSSSS2` [Compound 4, 6-Ethoxy-N,N’-diethyl-[1,2,3,4,5]pentathiepino[6,7-a]indolizine-9-carboxamide], the “intracellular ROS levels” value with DanG and with PATU-8902 was “high levels of intracellular ROS were detected” each time. In addition, the “caspase-3 and -7 activity vs solvent control” value in assay [1] is “statistically significant results”.

As to `CCOc1c2c(c3ccc(C(=O)N4CCN(C(=O)c5ccc(F)cc5)CC4)cn13)SSSSS2` [Compound 5, (6-Ethoxy-[1,2,3,4,5]pentathiepino[6,7-a]indolizin-9-yl)(4-(4-fluorobenzoyl)piperazinyl)methanone], the “intracellular ROS levels” value in the assay on DanG and in the assay with PATU-8902 was “high levels of intracellular ROS were detected” throughout. Further, the “fraction of 89 kDa PARP1” value with PARP1 in A2780 is “very small and only confirmed after treatment with pentathiepins 3 or 5”; in the assay with PARP1 in Siso, “very small and only confirmed after treatment with pentathiepins 3 or 5”.

For the compound `CCOc1c2c(c3ccc(C(=O)N4CCOCC4)cn13)SSSSS2` [Compound 3, (6-Ethoxy-[1,2,3,4,5]pentathiepino[6,7-a]indolizin-9-yl)(morpholino)methanone], the “intracellular ROS levels” value in the assay with DanG and with PATU-8902 was “high levels of intracellular ROS were detected” each time. The “fraction of 89 kDa PARP1” value was “very small and only confirmed after treatment with pentathiepins 3 or 5” in the assay with PARP1 in A2780; “very small and only confirmed after treatment with pentathiepins 3 or 5” in the assay with PARP1 in Siso.

For the compound `CCOc1c2c(c3ccc(C(=O)N4CCN(S(=O)(=O)c5ccc(C)cc5)CC4)cn13)SSSSS2` [Compound 6, (6-Ethoxy-[1,2,3,4,5]pentathiepino[6,7-a]indolizin-9-yl)(4-tosylpiperazinyl)methanone], the “caspase-3 and -7 activity vs solvent control” value in assay [1] is “statistically significant results”.

As for `CCOc1c2c(c3ccc(C(=O)N4CCCCC4)cn13)SSSSS2` [Compound 2, (6-Ethoxy-[1,2,3,4,5]pentathiepino[6,7-a]indolizin-9-yl)(piperidinyl)methanone], the “intracellular ROS levels” value with DanG and in the assay on PATU-8902 was “high levels of intracellular ROS were detected” in each case. Also, the “caspase-3 and -7 activity vs solvent control” value in assay [1] is on record as “statistically significant results”.
